Active and inactive are the calls of the source. No cut-off for these calls is given here.
Legend:
[1] = Antiproliferative activity against human DLD1 cells assessed as reduction in cell viability after 24 hrs by XTT assay; type: functional, cell-based; details: DLD-1, 24 h
[2] = Antiproliferative activity against human HCT116 cells assessed as reduction in cell viability after 24 hrs by XTT assay; type: functional, cell-based; details: HCT-116, 24 h
HT-29 [3] = assay: Antiproliferative activity against human HT-29 cells assessed as reduction in cell viability after 24 hrs by XTT assay; type: functional, cell-based; details: HT-29, 24 h
[4] = Cell cycle arrest in human DLD1 cells assessed as accumulation at sub-G1 phase at 30 uM after 24 hrs using propidium iodide by flow cytometry (reference value: 1.73 %); type: functional, cell-based; details: DLD-1
[5] = Cell cycle arrest in human DLD1 cells assessed as accumulation at G0-G1 phase at 30 uM after 24 hrs using propidium iodide by flow cytometry (reference value: 35.37 %); type: functional, cell-based; details: DLD-1
[6] = Cell cycle arrest in human DLD1 cells assessed as accumulation at S phase at 30 uM after 24 hrs using propidium iodide by flow cytometry (reference value: 21.08 %); type: functional, cell-based; details: DLD-1
[7] = Cell cycle arrest in human DLD1 cells assessed as accumulation at G2-M phase at 30 uM after 24 hrs using propidium iodide by flow cytometry (reference value: 39.85 %); type: functional, cell-based; details: DLD-1
[8] = Cell cycle arrest in human HCT116 cells assessed as accumulation at sub-G1 phase at 30 uM after 24 hrs using propidium iodide by flow cytometry (reference value: 1.78 %); type: functional, cell-based; details: HCT-116
[9] = Cell cycle arrest in human HCT116 cells assessed as accumulation at G0-G1 phase at 30 uM after 24 hrs using propidium iodide by flow cytometry (reference value: 42.61 %); type: functional, cell-based; details: HCT-116
[10] = Cell cycle arrest in human HCT116 cells assessed as accumulation at S phase at 30 uM after 24 hrs using propidium iodide by flow cytometry (reference value: 18.80 %); type: functional, cell-based; details: HCT-116
[11] = Cell cycle arrest in human HCT116 cells assessed as accumulation at G2-M phase at 30 uM after 24 hrs using propidium iodide by flow cytometry (reference value: 33.69 %); type: functional, cell-based; details: HCT-116
HT-29 [12] = assay: Cell cycle arrest in human HT-29 cells assessed as accumulation at sub-G1 phase at 30 uM after 24 hrs using propidium iodide by flow cytometry (reference value: 3.18 %); type: functional
HT-29 [13] = assay: Cell cycle arrest in human HT-29 cells assessed as accumulation at G0-G1 phase at 30 uM after 24 hrs using propidium iodide by flow cytometry (reference value: 43.78 %); type: functional
HT-29 [14] = assay: Cell cycle arrest in human HT-29 cells assessed as accumulation at S phase at 30 uM after 24 hrs using propidium iodide by flow cytometry (reference value: 28.28 %); type: functional
HT-29 [15] = assay: Cell cycle arrest in human HT-29 cells assessed as accumulation at G2-M phase at 30 uM after 24 hrs using propidium iodide by flow cytometry (reference value: 21.66 %); type: functional
DLD-1 [16] = assay: Induction of apoptosis in human DLD1 cells assessed as APO2.7-positive cells at 30 uM after 24 hrs using propidium iodide by flow cytometry (reference value: 1.01 %); type: functional
HCT-116 [17] = assay: Induction of apoptosis in human HCT116 cells assessed as APO2.7-positive cells at 30 uM after 24 hrs using propidium iodide by flow cytometry (reference value: 1.19 %); type: functional
HT-29 [18] = assay: Induction of apoptosis in human HT-29 cells assessed as APO2.7-positive cells at 30 uM after 24 hrs using propidium iodide by flow cytometry (reference value: 1.11 %); type: functional
DLD-1 [19] = assay: Induction of apoptosis in human DLD1 cells assessed as PARP cleavage at 30 uM after 24 hrs using propidium iodide by Western blot analysis; type: functional, cell-based
HCT-116 [20] = assay: Induction of apoptosis in human HCT116 cells assessed as PARP cleavage at 30 uM after 24 hrs using propidium iodide by Western blot analysis; type: functional, cell-based
HT-29 [21] = assay: Induction of apoptosis in human HT-29 cells assessed as PARP cleavage at 30 uM after 24 hrs using propidium iodide by Western blot analysis; type: functional, cell-based
DLD-1 [22] = assay: Antiproliferative activity against human DLD1 cells assessed as reduction in cell viability after 24 to 48 hrs by XTT assay; type: functional, cell-based
HCT-116 [23] = assay: Antiproliferative activity against human HCT116 cells assessed as reduction in cell viability after 24 to 48 hrs by XTT assay; type: functional, cell-based
HT-29 [24] = assay: Antiproliferative activity against human HT-29 cells assessed as reduction in cell viability after 24 to 48 hrs by XTT assay; type: functional, cell-based

For `C[C@H](CCC(=O)N1CCN(Cc2ccccc2)CC1)[C@H]1CC[C@H]2[C@@H]3[C@H](O)C[C@@H]4C[C@H](O)CC[C@]4(C)[C@H]3CC[C@]12C`, which IC50 [1] is on record?
Its IC50 is 33 µM.

And the IC50 [2]?
Its IC50 is 23 µM.

And the IC50 (HT-29 [3])?
The IC50 was 36 µM.

And the Activity [4]?
Its Activity is 10.7%.

What about the Activity [5] of the same molecule?
The Activity was 40%.

And the Activity [6]?
Its Activity is 14.1%.

What about the Activity [7] of the same molecule?
Its Activity is 32.2%.

And the Activity [8]?
The Activity was 13%.

And the Activity [9]?
The Activity was 36.9%.

What about the Activity [10] of the same molecule?
The Activity was 17.8%.

What about the Activity [11] of the same molecule?
Its Activity is 26.6%.

And the Activity (HT-29 [12])?
Its Activity is 18.13%.

What about the Activity (HT-29 [13]) of the same molecule?
Its Activity is 49.08%.

What about the Activity (HT-29 [14]) of the same molecule?
Its Activity is 17.11%.

What about the Activity (HT-29 [15]) of the same molecule?
The Activity was 13.63%.

And the Activity (DLD-1 [16])?
The Activity was 22.54%.

What about the Activity (HCT-116 [17]) of the same molecule?
Its Activity is 20.33%.

What about the Activity (HT-29 [18]) of the same molecule?
Its Activity is 8.57%.

And the Activity (DLD-1 [19])?
Its Activity is “Active”.

What about the Activity (HCT-116 [20]) of the same molecule?
The Activity was “Active”.

What about the Activity (HT-29 [21]) of the same molecule?
Its Activity is “Active”.

With `C[C@H](CCC(=O)N1CCN(Cc2ccccc2)CC1)[C@H]1CC[C@H]2[C@@H]3CC[C@@H]4C[C@H](O)CC[C@]4(C)[C@H]3CC[C@]12C` as the molecule, how does the Activity (DLD-1 [22]) read?
The Activity was “Dose-dependent effect”.

And the Activity (HCT-116 [23])?
The Activity was “Dose-dependent effect”.

What about the Activity (HT-29 [24]) of the same molecule?
Its Activity is “Dose-dependent effect”.

Which IC50 [1] does the source give for `C[C@H](CCC(=O)N1CCN(Cc2ccccc2)CC1)[C@H]1CC[C@H]2[C@@H]3CC[C@@H]4C[C@H](O)CC[C@]4(C)[C@H]3C[C@H](O)[C@]12C` here?
The IC50 was 26 µM.

And the IC50 [2]?
The IC50 was 22 µM.

What about the IC50 (HT-29 [3]) of the same molecule?
Its IC50 is 32 µM.

And the Activity [4]?
The Activity was 14.3%.

And the Activity [5]?
The Activity was 28.5%.

What about the Activity [6] of the same molecule?
Its Activity is 15.4%.

And the Activity [7]?
Its Activity is 39%.

And the Activity [8]?
Its Activity is 14.8%.

And the Activity [9]?
The Activity was 33.6%.

And the Activity [10]?
The Activity was 18.4%.

What about the Activity [11] of the same molecule?
The Activity was 28.9%.

What about the Activity (HT-29 [12]) of the same molecule?
The Activity was 34.81%.

What about the Activity (HT-29 [13]) of the same molecule?
Its Activity is 36.89%.

And the Activity (HT-29 [14])?
Its Activity is 15.67%.

And the Activity (HT-29 [15])?
Its Activity is 11.14%.

What about the Activity (DLD-1 [16]) of the same molecule?
The Activity was 2.49%.

What about the Activity (HCT-116 [17]) of the same molecule?
Its Activity is 4.59%.

And the Activity (HT-29 [18])?
Its Activity is 1.26%.

What about the Activity (DLD-1 [19]) of the same molecule?
Its Activity is “Active”.

And the Activity (HCT-116 [20])?
Its Activity is “Active”.

And the Activity (HT-29 [21])?
Its Activity is “Active”.

With `C[C@H](CCC(=O)N1CCN(C/C=C/c2ccccc2)CC1)[C@H]1CC[C@H]2[C@@H]3[C@H](O)C[C@@H]4C[C@H](O)CC[C@]4(C)[C@H]3CC[C@]12C` as the molecule, how does the IC50 [1] read?
Its IC50 is 36 µM.

What about the IC50 [2] of the same molecule?
The IC50 was 34 µM.

And the IC50 (HT-29 [3])?
Its IC50 is 35 µM.

What about the Activity [4] of the same molecule?
Its Activity is 49.8%.

And the Activity [5]?
Its Activity is 24%.

What about the Activity [6] of the same molecule?
The Activity was 18.8%.

What about the Activity [7] of the same molecule?
The Activity was 6.22%.

And the Activity [8]?
Its Activity is 31.2%.

What about the Activity [9] of the same molecule?
Its Activity is 33%.

What about the Activity [10] of the same molecule?
The Activity was 22.5%.

And the Activity [11]?
The Activity was 11.3%.

What about the Activity (HT-29 [12]) of the same molecule?
Its Activity is 48.38%.

And the Activity (HT-29 [13])?
The Activity was 28.49%.

What about the Activity (HT-29 [14]) of the same molecule?
The Activity was 18.65%.

What about the Activity (HT-29 [15]) of the same molecule?
The Activity was 4.77%.

What about the Activity (DLD-1 [16]) of the same molecule?
Its Activity is 34.87%.

And the Activity (HCT-116 [17])?
The Activity was 37.73%.

What about the Activity (HT-29 [18]) of the same molecule?
Its Activity is 8.79%.

And the Activity (DLD-1 [19])?
Its Activity is “Active”.

What about the Activity (HCT-116 [20]) of the same molecule?
The Activity was “Active”.

What about the Activity (HT-29 [21]) of the same molecule?
The Activity was “Active”.

Which Activity (DLD-1 [22]) does the source give for `C[C@H](CCC(=O)N1CCN(C(c2ccc(F)cc2)c2ccc(F)cc2)CC1)[C@H]1CC[C@H]2[C@@H]3[C@H](O)C[C@@H]4C[C@H](O)CC[C@]4(C)[C@H]3CC[C@]12C` here?
The Activity was “Dose-dependent effect”.

What about the Activity (HCT-116 [23]) of the same molecule?
Its Activity is “Dose-dependent effect”.

What about the Activity (HT-29 [24]) of the same molecule?
Its Activity is “Dose-dependent effect”.

For `C[C@H](CCC(=O)N1CCN(C(c2ccccc2)c2ccc(Cl)cc2)CC1)[C@H]1CC[C@H]2[C@@H]3[C@@H](O)C[C@@H]4C[C@H](O)CC[C@]4(C)[C@H]3CC[C@]12C` (stereo not given in full), which Activity (DLD-1 [22]) is on record?
The Activity was “Dose-dependent effect”.

What about the Activity (HCT-116 [23]) of the same molecule?
The Activity was “Dose-dependent effect”.

What about the Activity (HT-29 [24]) of the same molecule?
Its Activity is “Dose-dependent effect”.

With `C[C@H](CCC(=O)N1CCN(C(c2ccccc2)c2ccc(Cl)cc2)CC1)[C@H]1CC[C@H]2[C@@H]3CC[C@@H]4C[C@H](O)CC[C@]4(C)[C@H]3C[C@H](O)[C@]12C` (stereo not given in full) as the molecule, how does the Activity (DLD-1 [22]) read?
The Activity was “Dose-dependent effect”.

What about the Activity (HCT-116 [23]) of the same molecule?
The Activity was “Dose-dependent effect”.

And the Activity (HT-29 [24])?
Its Activity is “Dose-dependent effect”.
